Data reported in PubChem BioAssay AID1918993 (Molecular Pharmacology Branch, DTP, NCI, 2023).
“And” between values parts separate entries of the source, which are not always exact repeats. Equal values may be shown once.

System: 233499-124-R-J3-PDC complex spheroid growth
Assay: Anticancer human tumor 233499-124-R-J3-PDC patient-derived colon adenocarcinoma cell line growth inhibition [AhR]
Conditions: for viability, T/C: stronger effect = lower value
Summary of the method: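 Agents were dosed in half-log steps down from roughly clinical Cmax, or from 10 microM where Cmax was unknown, alone and with AhR antagonists. Read-out: percent test/control growth of tumor spheroids containing HUVEC and MSC stromal cells.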

[1] = curve of first compound, second compound 0.1 µM
[2] = curve of first compound, second compound 0.316 µM
[3] = curve of first compound, second compound 1 µM
[4] = curve of first compound, second compound 3.16 µM
[5] = curve of first compound, second compound 10 µM
[6] = second compound 0.1 µM, first compound 0.0316 µM
[7] = second compound 0.1 µM, first compound 0.1 µM
[8] = second compound 0.1 µM, first compound 0.316 µM
[9] = second compound 0.1 µM, first compound 1 µM
[10] = second compound 0.316 µM, first compound 0.0316 µM
[11] = second compound 0.316 µM, first compound 0.1 µM
[12] = second compound 0.316 µM, first compound 0.316 µM
[13] = second compound 0.316 µM, first compound 1 µM
[14] = second compound 1 µM, first compound 0.0316 µM
[15] = second compound 1 µM, first compound 0.1 µM
[16] = second compound 1 µM, first compound 0.316 µM
[17] = second compound 1 µM, first compound 1 µM
[18] = second compound 3.16 µM, first compound 0.0316 µM
[19] = second compound 3.16 µM, first compound 0.1 µM
[20] = second compound 3.16 µM, first compound 0.316 µM
[21] = second compound 3.16 µM, first compound 1 µM
[22] = second compound 10 µM, first compound 0.0316 µM
[23] = second compound 10 µM, first compound 0.1 µM
[24] = second compound 10 µM, first compound 0.316 µM
[25] = second compound 10 µM, first compound 1 µM
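Further: spheroids exposed to agents for seven days before reading.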

CC1(C)CCC(CN2CCN(c3ccc(C(=O)NS(=O)(=O)c4ccc(NCC5CCOCC5)c([N+](=O)[O-])c4)c(Oc4cnc5[nH]ccc5c4)c3)CC2)=C(c2ccc(Cl)cc2)C1
viability, T/C (compound 0.0316 µM): 87.2% and 90.9% and 106% | viability, T/C (compound 0.1 µM): 102% and 112% and 109% | viability, T/C (compound 0.316 µM): 92.4% and 105% and 97.8% | viability, T/C (compound 1 µM): 105% and 101% and 104% | viability, T/C (compound 3.16 µM): 112% and 114% and 98.7% | viability, T/C (compound 10 µM): 109% and 42.8% and 31.2% | IC50 (curve of compound): > 10 µM and 8.74 µM and 7.26 µM

COc1cc(C2c3cc4c(cc3C(OC3OC5COC(C)OC5C(O)C3O)C3COC(=O)C23)OCO4)cc(OC)c1O (configuration not stated) + Cc1cncc(-c2nc(NCCc3c[nH]c4ccccc34)c3ncn(C(C)C)c3n2)c1
IC50 [1]: > 10 µM | IC50 [2]: > 10 µM | IC50 [3]: > 10 µM | IC50 [4]: > 10 µM | IC50 [5]: < 0.0316 µM | viability, T/C [6]: 92.6% | viability, T/C [7]: 101% | viability, T/C [8]: 109% | viability, T/C [9]: 95.4% | viability, T/C (second compound 0.1 µM, first compound 3.16 µM): 98.6% | viability, T/C (second compound 0.1 µM, first compound 10 µM): 92.9% | viability, T/C [10]: 91.7% | viability, T/C [11]: 89.8% | viability, T/C [12]: 86% | viability, T/C [13]: 81.6% | viability, T/C (second compound 0.316 µM, first compound 3.16 µM): 83.9% | viability, T/C (second compound 0.316 µM, first compound 10 µM): 88.5% | viability, T/C [14]: 77.5% | viability, T/C [15]: 84.4% | viability, T/C [16]: 77.3% | viability, T/C [17]: 88% | viability, T/C (second compound 1 µM, first compound 3.16 µM): 79.8% | viability, T/C (second compound 1 µM, first compound 10 µM): 69.9% | viability, T/C [18]: 78.9% | viability, T/C [19]: 79.5% | viability, T/C [20]: 77.4% | viability, T/C [21]: 73% | viability, T/C (second compound 3.16 µM, first compound 3.16 µM): 74.1% | viability, T/C (second compound 3.16 µM, first compound 10 µM): 55.9% | viability, T/C [22]: 9.81% | viability, T/C [23]: 11.9% | viability, T/C [24]: 30.9% | viability, T/C [25]: 30.1% | viability, T/C (second compound 10 µM, first compound 3.16 µM): 22.2% | viability, T/C (second compound 10 µM, first compound 10 µM): 9.08%

Nc1ncn(C2CC(O)C(CO)O2)c(=O)n1 (configuration not stated) + Cc1ccccc1N=Nc1ccc(NC(=O)c2ccnn2C)c(C)c1
IC50 [1]: > 1 µM | IC50 [2]: > 1 µM | IC50 [3]: > 1 µM | IC50 [4]: > 1 µM | IC50 [5]: > 1 µM | viability, T/C (second compound 0.1 µM, first compound 0.00316 µM): 102% | viability, T/C (second compound 0.1 µM, first compound 0.01 µM): 104% | viability, T/C [6]: 91.7% | viability, T/C [7]: 98.6% | viability, T/C [8]: 91.5% | viability, T/C [9]: 111% | viability, T/C (second compound 0.316 µM, first compound 0.00316 µM): 81% | viability, T/C (second compound 0.316 µM, first compound 0.01 µM): 91.6% | viability, T/C [10]: 93.6% | viability, T/C [11]: 82.9% | viability, T/C [12]: 102% | viability, T/C [13]: 84.5% | viability, T/C (second compound 1 µM, first compound 0.00316 µM): 93.2% | viability, T/C (second compound 1 µM, first compound 0.01 µM): 104% | viability, T/C [14]: 105% | viability, T/C [15]: 107% | viability, T/C [16]: 103% | viability, T/C [17]: 113% | viability, T/C (second compound 3.16 µM, first compound 0.00316 µM): 109% | viability, T/C (second compound 3.16 µM, first compound 0.01 µM): 97.3% | viability, T/C [18]: 107% | viability, T/C [19]: 92.5% | viability, T/C [20]: 103% | viability, T/C [21]: 97.4% | viability, T/C (second compound 10 µM, first compound 0.00316 µM): 116% | viability, T/C (second compound 10 µM, first compound 0.01 µM): 114% | viability, T/C [22]: 108% | viability, T/C [23]: 106% | viability, T/C [24]: 115% | viability, T/C [25]: 114%
